Source: patent publication US20020137929A1, “1 - (3-heterocyclylphenyl) isothiourea, -isourea, -guanidine and -amidine herbicidal agents” (Intellectual Property Department, BASF Aktiengesellschaft, priority 1998, published 2002)

Key:
AMBEL (Ragweed, Common) = assay: Postemergence herbicidal evaluation; assay type: in vivo, Ambrosia artemisifolia; conditions: postemergence
Method in brief: (§1)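 Compound is applied as a foliar spray to seedlings about two weeks old, formulated in equal parts acetone and water with 0.5% TWEEN 20 and delivered at 40 psi to give about 0.0156–0.500 kg per hectare. Injury is rated visually 0–9 after four to five weeks.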

CASOB (Sicklepod) = assay: Postemergence herbicidal evaluation; assay type: in vivo, Cassia obtusifolia; conditions: postemergence
Method in brief: as §1

GALAP (Galium) [1] = assay: Postemergence herbicidal evaluation; assay type: in vivo, Galium aparine; conditions: postemergence
Method in brief: as §1

[2] = system: GLXMAW (Soybean, Williams); assay: Postemergence herbicidal evaluation; assay type: in vivo, Glycine max, (L.) Merr. cv Williams; conditions: postemergence
Method in brief: as §1

[3] = system: TRZAWR (Wheat, Winter, cv Riband); assay: Postemergence herbicidal evaluation; assay type: in vivo, Triticum aestivum; conditions: postemergence
Method in brief: as §1

GALAP (Galium) [4] = assay: Preemergence herbicidal evaluation; assay type: in vivo, Galium aparine; conditions: preemergence, rated 4-5 weeks after treatment, 0-9 scale
Method in brief: (§2)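 Steps: mix seeds into potting soil; plant atop ~1 inch soil; spray compound in aqueous acetone (~0.0156-0.500 kg/ha equivalent); maintain in greenhouse with watering; rate visually 0-9 versus control at 4-5 weeks.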

SETVI (Foxtail, Green) = assay: Preemergence herbicidal evaluation; assay type: in vivo, Setaria viridis; conditions: preemergence, rated 4-5 weeks after treatment, 0-9 scale
Method in brief: as §2

ORYSAT (Rice, Tebonnet) = assay: Preemergence herbicidal evaluation; assay type: in vivo, Oryza sativa, (L.) Tebonnet; conditions: preemergence, rated 4-5 weeks after treatment, 0-9 scale
Method in brief: as §2

[5] = system: ECHORC (Watergrass (Calif.)); assay: Preemergence weed control under flooded paddy conditions; assay type: in vivo, Echinochloa oryzoides; conditions: rated 3-4 weeks after treatment
Method in brief: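 Ratings on a 0-9 visual scale cover stand, vigor, malformation, size, chlorosis and overall appearance relative to a control, taken three to four weeks post-treatment. Application was into flood water over freshly sown silt loam at roughly 0.0313 to 0.500 kg/ha.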

CYPSE (Flatsedge) = assay: as above; assay type: in vivo, Cyperus serotinus; conditions: rated 3-4 weeks after treatment
Method in brief: (§3)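 First, seeds or propagules go into the top 0.5 cm of silt loam; next, water is held 1.5 to 3 cm over the soil; then compound (50/50 acetone/water) is pipetted into it at about 0.0313 to 0.500 kg/ha; finally plants are rated visually 0-9 after three to four weeks.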

MOOVA (Monochoria) = assay: as above; assay type: in vivo, Monochoria vaginalis; conditions: rated 3-4 weeks after treatment
Method in brief: as §3

[6] = system: SAGPY (Arrowhead (Pygmaea)); assay: as above; assay type: in vivo, Sagittaria pygmaea; conditions: rated 3-4 weeks after treatment
Method in brief: as §3

[7] = system: ECHORC (Watergrass (Calif.)); assay: Postemergence weed control under flooded paddy conditions; assay type: in vivo, Echinochloa oryzoides; conditions: postemergence weeds, rated 3 to 4 weeks after treatment
Method in brief: (§4)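 Injury ratings (0–9 scale covering stand, vigor, malformation, size, chlorosis and overall appearance versus control) were made three to four weeks after treatment. Test material, about 0.0313 to 0.500 kg/ha a.i. in 50/50 v/v aqueous/acetone, was added to flood water 1.5 to 3 cm deep over 3 to 5 cm weeds and 1.5 to 2.5 leaf rice.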

[8] = system: SAGPY (Arrowhead (Pygmaea)); assay: as above; assay type: in vivo, Sagittaria pygmaea; conditions: postemergence weeds, rated 3 to 4 weeks after treatment
Method in brief: as §4

In the case of `C=CCN1C(=O)C(CC(=O)OC(C)C(=O)OCC)SC1=Nc1cc(-n2c(=O)ccn(C)c2=O)c(F)cc1Cl` [Compound 94, 3-Allyl-2-{{2-chloro-5-[3,6-dihydro-3-methyl-2,6-dioxo-1(2H)-pyrimidinyl]-4-fluorophenyl}imino}-4-oxo-5-thiazolidineacetic acid, ester with ethyl lactate, (R,S)-], the AMBEL herbicidal rating (AMBEL (Ragweed, Common); rate 0.0158 kg/ha) is reported as 7.0, the AMBEL herbicidal rating (AMBEL (Ragweed, Common); rate 0.0315 kg/ha) is reported as 9.0 and the AMBEL herbicidal rating (AMBEL (Ragweed, Common); rate 0.0630 kg/ha) is reported as 9.0. For the same molecule, the CASOB herbicidal rating (CASOB (Sicklepod); rate 0.0158 kg/ha) was 0.0, the CASOB herbicidal rating (CASOB (Sicklepod); rate 0.0315 kg/ha) was 3.0 and the CASOB herbicidal rating (CASOB (Sicklepod); rate 0.0630 kg/ha) was 9.0. It also gave a GALAP herbicidal rating (GALAP (Galium) [1]; rate 0.0158 kg/ha) of 3.0, a GALAP herbicidal rating (GALAP (Galium) [1]; rate 0.0315 kg/ha) of 4.0 and a GALAP herbicidal rating (GALAP (Galium) [1]; rate 0.0630 kg/ha) of 4.0. For the same molecule, the GLXMAW herbicidal rating ([2]; rate 0.0158 kg/ha) was 9.0, the GLXMAW herbicidal rating ([2]; rate 0.0315 kg/ha) was 9.0 and the GLXMAW herbicidal rating ([2]; rate 0.0630 kg/ha) was 9.0. It also gave a TRZAWR herbicidal rating ([3]; rate 0.0158 kg/ha) of 6.0, a TRZAWR herbicidal rating ([3]; rate 0.0315 kg/ha) of 9.0 and a TRZAWR herbicidal rating ([3]; rate 0.0630 kg/ha) of 8.0. It also gave a GALAP rating (GALAP (Galium) [4]; 0.0156 kg/ha) of 0.0, a GALAP rating (GALAP (Galium) [4]; 0.0313 kg/ha) of 0.0 and a GALAP rating (GALAP (Galium) [4]; 0.0625 kg/ha) of 0.0. It also gave a GALAP rating (GALAP (Galium) [4]; 0.1250 kg/ha) of 3.0, a GALAP rating (GALAP (Galium) [4]; 0.2500 kg/ha) of 9.0 and an SETVI rating (SETVI (Foxtail, Green); 0.0156 kg/ha) of 0.0. For the same molecule, the SETVI rating (SETVI (Foxtail, Green); 0.0313 kg/ha) was 0.0, the SETVI rating (SETVI (Foxtail, Green); 0.0625 kg/ha) was 0.0 and the SETVI rating (SETVI (Foxtail, Green); 0.1250 kg/ha) was 4.0. For the same molecule, the SETVI rating (SETVI (Foxtail, Green); 0.2500 kg/ha) was 9.0, the ORYSAT rating (ORYSAT (Rice, Tebonnet); 0.0156 kg/ha) was 0.0 and the ORYSAT rating (ORYSAT (Rice, Tebonnet); 0.0313 kg/ha) was 0.0. For the same molecule, the ORYSAT rating (ORYSAT (Rice, Tebonnet); 0.0625 kg/ha) was 0.0, the ORYSAT rating (ORYSAT (Rice, Tebonnet); 0.1250 kg/ha) was 0.0 and the ORYSAT rating (ORYSAT (Rice, Tebonnet); 0.2500 kg/ha) was 3.0. For the same molecule, the “ECHORC herbicidal effect rating” value ([5]; 0.0313 kg/ha) was 0.0, the “ECHORC herbicidal effect rating” value ([5]; 0.0625 kg/ha) was 0.0 and the “ECHORC herbicidal effect rating” value ([5]; 0.1250 kg/ha) was 2.0. The “ECHORC herbicidal effect rating” value ([5]; 0.2500 kg/ha) was 7.0, the “CYPSE herbicidal effect rating” value (CYPSE (Flatsedge); 0.1250 kg/ha) was 6.0 and the “CYPSE herbicidal effect rating” value (CYPSE (Flatsedge); 0.2500 kg/ha) was 9.0. For the same molecule, the “MOOVA herbicidal effect rating” value (MOOVA (Monochoria); 0.0313 kg/ha) was 9.0, the “MOOVA herbicidal effect rating” value (MOOVA (Monochoria); 0.0625 kg/ha) was 9.0 and the “MOOVA herbicidal effect rating” value (MOOVA (Monochoria); 0.1250 kg/ha) was 9.0. The “MOOVA herbicidal effect rating” value (MOOVA (Monochoria); 0.2500 kg/ha) was 9.0, the “SAGPY herbicidal effect rating” value ([6]; 0.0313 kg/ha) was 0.0 and the “SAGPY herbicidal effect rating” value ([6]; 0.0625 kg/ha) was 0.0. The “SAGPY herbicidal effect rating” value ([6]; 0.1250 kg/ha) was 5.0, the “SAGPY herbicidal effect rating” value ([6]; 0.2500 kg/ha) was 9.0 and the “Herbicidal rating ECHORC” value ([7]; Rate 0.0313 kg/ha) was 0.0. The “Herbicidal rating ECHORC” value ([7]; Rate 0.0625 kg/ha) was 0.0, the “Herbicidal rating ECHORC” value ([7]; Rate 0.1250 kg/ha) was 2.0 and the “Herbicidal rating ECHORC” value ([7]; Rate 0.2500 kg/ha) was 7.0. The “Herbicidal rating SAGPY” value ([8]; Rate 0.0313 kg/ha) was 0.0, the “Herbicidal rating SAGPY” value ([8]; Rate 0.0625 kg/ha) was 0.0 and the “Herbicidal rating SAGPY” value ([8]; Rate 0.1250 kg/ha) was 5.0. For the same molecule, the “Herbicidal rating SAGPY” value ([8]; Rate 0.2500 kg/ha) was 9.0.
